Results as given in patent publication US6538014B1, “Process for the aggrochemical treatment of rangelands” (Bayer CropScience, Inc., priority 1992, dated 2003).

Tests used:
Assay type in all cases: in vivo
Melanoplus sanguinipes = test: Caged grassland treatment, mortality of grasshoppers; conditions: for Effectiveness (%) against the grasshopper Melanoplus Sanquinipes, Persistence of Action 7 DAT / Effectiveness (%) against the grasshopper Melanoplus Sanquinipes, Persistence of Action 15 DAT / Effectiveness (%) against the grasshopper Melanoplus Sanquinipes, Persistence of Action 28 DAT: infestation renewed 2 days before
Method: A zone of grassland is treated under controlled conditions, using cages to limit the space of movement of the insects. This zone is infested at a rate of 40 grasshoppers (Melanoplus sanguinipes) per m^2. For experimental purposes, the infestation is renewed 2 days before each observation of the effectiveness of the products, without performing a new insecticide treatment. The results are observed by performing mortality measurements (=percentage of grasshoppers killed). A remarkable persistence of action is observed.

Schistocerca gregaria = test: Grassland treatment, mortality of locusts; conditions: for Effectiveness (%) against the locust (Schistocerca gregaria), Persistence of action 7 DAT / Effectiveness (%) against the locust (Schistocerca gregaria), Persistence of action 14 DAT / Effectiveness (%) against the locust (Schistocerca gregaria), Persistence of action 18 DAT: infestation renewed 2 days before
Description: (§1) One treats a zone of grassland infested at a rate of 40 locusts (Schistocerca gregaria) per m^2. For experimental purposes, the infestation is renewed 2 days before each effectiveness measurement. The results are observed by performing mortality measurements (=percentage of locusts killed). A remarkable persistence of action is observed.

Chortoicetes terminifera = test: Grassland treatment, mortality of locusts; conditions: for Effectiveness (%) against the locust Chortoicetes terminifera, Persistence of action 5 DAT / Effectiveness (%) against the locust Chortoicetes terminifera, Persistence of action 10 DAT / Effectiveness (%) against the locust Chortoicetes terminifera, Persistence of action 20 DAT / Effectiveness (%) against the locust Chortoicetes terminifera, Persistence of action 30 DAT: infestation renewed 2 days before
Method: as §1, with “A” for “One treats a”, “(Chortoicetes terminifera)” for “(Schistocerca gregaria)”, “m2 is treated, and” for “m^2. For experimental purposes,”

SMILES: N#Cc1nn(-c2c(Cl)cc(C(F)(F)F)cc2Cl)c(N)c1[S+]([O-])C(F)(F)F (centres unmarked) [Product A, 1-[2,6-dichloro-4-CF3-phenyl)-3-cyano-4-CF3SO-5-NH2-pyrazole]
- Effectiveness (%) against the grasshopper Melanoplus Sanquinipes, Immediate Action 1 DAT (Melanoplus sanguinipes; 6.2 g Product A per hectare): 87%
- Effectiveness (%) against the grasshopper Melanoplus Sanquinipes, Persistence of Action 7 DAT (Melanoplus sanguinipes; 6.2 g Product A per hectare): 98%
- Effectiveness (%) against the grasshopper Melanoplus Sanquinipes, Persistence of Action 15 DAT (Melanoplus sanguinipes; 6.2 g Product A per hectare): 93%
- Effectiveness (%) against the grasshopper Melanoplus Sanquinipes, Persistence of Action 28 DAT (Melanoplus sanguinipes; 6.2 g Product A per hectare): 38%
- Effectiveness (%) against the grasshopper Melanoplus Sanquinipes, Immediate Action 1 DAT (Melanoplus sanguinipes; 12.5 g Product A per hectare): 93%
- Effectiveness (%) against the grasshopper Melanoplus Sanquinipes, Persistence of Action 7 DAT (Melanoplus sanguinipes; 12.5 g Product A per hectare): 100%
- Effectiveness (%) against the grasshopper Melanoplus Sanquinipes, Persistence of Action 15 DAT (Melanoplus sanguinipes; 12.5 g Product A per hectare): 100%
- Effectiveness (%) against the grasshopper Melanoplus Sanquinipes, Persistence of Action 28 DAT (Melanoplus sanguinipes; 12.5 g Product A per hectare): 69%
- Effectiveness (%) against the grasshopper Melanoplus Sanquinipes, Immediate Action 1 DAT (Melanoplus sanguinipes; 25 g Product A per hectare): 98%
- Effectiveness (%) against the grasshopper Melanoplus Sanquinipes, Persistence of Action 7 DAT (Melanoplus sanguinipes; 25 g Product A per hectare): 100%
- Effectiveness (%) against the grasshopper Melanoplus Sanquinipes, Persistence of Action 15 DAT (Melanoplus sanguinipes; 25 g Product A per hectare): 100%
- Effectiveness (%) against the grasshopper Melanoplus Sanquinipes, Persistence of Action 28 DAT (Melanoplus sanguinipes; 25 g Product A per hectare): 93%
- Effectiveness (%) against the locust (Schistocerca gregaria), Immediate Action 1 DAT (Schistocerca gregaria; 2.5 g product A per hectare): 58%
- Effectiveness (%) against the locust (Schistocerca gregaria), Immediate Action 2 DAT (Schistocerca gregaria; 2.5 g product A per hectare): 72%
- Effectiveness (%) against the locust (Schistocerca gregaria), Persistence of action 7 DAT (Schistocerca gregaria; 2.5 g product A per hectare): 88%
- Effectiveness (%) against the locust (Schistocerca gregaria), Persistence of action 14 DAT (Schistocerca gregaria; 2.5 g product A per hectare): 72%
- Effectiveness (%) against the locust (Schistocerca gregaria), Persistence of action 18 DAT (Schistocerca gregaria; 2.5 g product A per hectare): 56%
- Effectiveness (%) against the locust (Schistocerca gregaria), Immediate Action 1 DAT (Schistocerca gregaria; 5 g product A per hectare): 82%
- Effectiveness (%) against the locust (Schistocerca gregaria), Immediate Action 2 DAT (Schistocerca gregaria; 5 g product A per hectare): 93%
- Effectiveness (%) against the locust (Schistocerca gregaria), Persistence of action 7 DAT (Schistocerca gregaria; 5 g product A per hectare): 100%
- Effectiveness (%) against the locust (Schistocerca gregaria), Persistence of action 14 DAT (Schistocerca gregaria; 5 g product A per hectare): 93%
- Effectiveness (%) against the locust (Schistocerca gregaria), Persistence of action 18 DAT (Schistocerca gregaria; 5 g product A per hectare): 89%
- Effectiveness (%) against the locust (Schistocerca gregaria), Immediate Action 1 DAT (Schistocerca gregaria; 10 g product A per hectare): 96%
- Effectiveness (%) against the locust (Schistocerca gregaria), Immediate Action 2 DAT (Schistocerca gregaria; 10 g product A per hectare): 100%
- Effectiveness (%) against the locust (Schistocerca gregaria), Persistence of action 7 DAT (Schistocerca gregaria; 10 g product A per hectare): 100%
- Effectiveness (%) against the locust (Schistocerca gregaria), Persistence of action 14 DAT (Schistocerca gregaria; 10 g product A per hectare): 98%
- Effectiveness (%) against the locust (Schistocerca gregaria), Persistence of action 18 DAT (Schistocerca gregaria; 10 g product A per hectare): 92%
- Effectiveness (%) against the locust (Schistocerca gregaria), Immediate Action 1 DAT (Schistocerca gregaria; 20 g product A per hectare): 100%
- Effectiveness (%) against the locust (Schistocerca gregaria), Immediate Action 2 DAT (Schistocerca gregaria; 20 g product A per hectare): 100%
- Effectiveness (%) against the locust (Schistocerca gregaria), Persistence of action 7 DAT (Schistocerca gregaria; 20 g product A per hectare): 100%
- Effectiveness (%) against the locust (Schistocerca gregaria), Persistence of action 14 DAT (Schistocerca gregaria; 20 g product A per hectare): 100%
- Effectiveness (%) against the locust (Schistocerca gregaria), Persistence of action 18 DAT (Schistocerca gregaria; 20 g product A per hectare): 98%
- Effectiveness (%) against the locust Chortoicetes terminifera, Immediate Action 1 DAT Adults (Chortoicetes terminifera; 3.1 g product A per hectare): 58%
- Effectiveness (%) against the locust Chortoicetes terminifera, Immediate Action 1 DAT Nymphs (Chortoicetes terminifera; 3.1 g product A per hectare): 70%
- Effectiveness (%) against the locust Chortoicetes terminifera, Persistence of action 5 DAT (Chortoicetes terminifera; 3.1 g product A per hectare): 96%
- Effectiveness (%) against the locust Chortoicetes terminifera, Persistence of action 10 DAT (Chortoicetes terminifera; 3.1 g product A per hectare): 90%
- Effectiveness (%) against the locust Chortoicetes terminifera, Persistence of action 20 DAT (Chortoicetes terminifera; 3.1 g product A per hectare): 74%
- Effectiveness (%) against the locust Chortoicetes terminifera, Persistence of action 30 DAT (Chortoicetes terminifera; 3.1 g product A per hectare): 55%
- Effectiveness (%) against the locust Chortoicetes terminifera, Immediate Action 1 DAT Adults (Chortoicetes terminifera; 6.25 g product A per hectare): 93%
- Effectiveness (%) against the locust Chortoicetes terminifera, Immediate Action 1 DAT Nymphs (Chortoicetes terminifera; 6.25 g product A per hectare): 100%
- Effectiveness (%) against the locust Chortoicetes terminifera, Persistence of action 5 DAT (Chortoicetes terminifera; 6.25 g product A per hectare): 100%
- Effectiveness (%) against the locust Chortoicetes terminifera, Persistence of action 10 DAT (Chortoicetes terminifera; 6.25 g product A per hectare): 98%
- Effectiveness (%) against the locust Chortoicetes terminifera, Persistence of action 20 DAT (Chortoicetes terminifera; 6.25 g product A per hectare): 93%
- Effectiveness (%) against the locust Chortoicetes terminifera, Persistence of action 30 DAT (Chortoicetes terminifera; 6.25 g product A per hectare): 80%
- Effectiveness (%) against the locust Chortoicetes terminifera, Immediate Action 1 DAT Adults (Chortoicetes terminifera; 12.5 g product A per hectare): 100%
- Effectiveness (%) against the locust Chortoicetes terminifera, Immediate Action 1 DAT Nymphs (Chortoicetes terminifera; 12.5 g product A per hectare): 100%
- Effectiveness (%) against the locust Chortoicetes terminifera, Persistence of action 5 DAT (Chortoicetes terminifera; 12.5 g product A per hectare): 100%
- Effectiveness (%) against the locust Chortoicetes terminifera, Persistence of action 10 DAT (Chortoicetes terminifera; 12.5 g product A per hectare): 100%
- Effectiveness (%) against the locust Chortoicetes terminifera, Persistence of action 20 DAT (Chortoicetes terminifera; 12.5 g product A per hectare): 96%
- Effectiveness (%) against the locust Chortoicetes terminifera, Persistence of action 30 DAT (Chortoicetes terminifera; 12.5 g product A per hectare): 82%
- Effectiveness (%) against the locust Chortoicetes terminifera, Immediate Action 1 DAT Adults (Chortoicetes terminifera; 25 g product A per hectare): 100%
- Effectiveness (%) against the locust Chortoicetes terminifera, Immediate Action 1 DAT Nymphs (Chortoicetes terminifera; 25 g product A per hectare): 100%
- Effectiveness (%) against the locust Chortoicetes terminifera, Persistence of action 5 DAT (Chortoicetes terminifera; 25 g product A per hectare): 100%
- Effectiveness (%) against the locust Chortoicetes terminifera, Persistence of action 10 DAT (Chortoicetes terminifera; 25 g product A per hectare): 100%
- Effectiveness (%) against the locust Chortoicetes terminifera, Persistence of action 20 DAT (Chortoicetes terminifera; 25 g product A per hectare): 100%
- Effectiveness (%) against the locust Chortoicetes terminifera, Persistence of action 30 DAT (Chortoicetes terminifera; 25 g product A per hectare): 96%
